In PubChem BioAssay (NCI):
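Exposure lasted 48 hours, with cells grown in 96-well plates and compounds tested at five concentrations. TGI denotes the concentration required for complete inhibition of growth.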

Key:
Assay in all cases: NCI anticancer screen, dose series, 48 h
KM12 colon = system: KM12 colon
SN12C renal = system: SN12C renal
XF 498 CNS = system: XF 498 CNS
LXFL 529 NSCLC = system: LXFL 529 NSCLC
A498 renal = system: A498 renal
786-0 renal = system: 786-0 renal
OVCAR-8 ovarian = system: OVCAR-8 ovarian
DLD-1 colon = system: DLD-1 colon
NCI-H23 lung = system: NCI-H23 lung
HOP-62 NSCLC = system: HOP-62 NSCLC
HCC-2998 colon = system: HCC-2998 colon
TK-10 renal = system: TK-10 renal
SR leukemia = system: SR leukemia
OVCAR-3 ovarian = system: OVCAR-3 ovarian
CCRF-CEM leukemia = system: CCRF-CEM leukemia
LOX IMVI melanoma = system: LOX IMVI melanoma
OVCAR-5 ovarian = system: OVCAR-5 ovarian
HCT-15 colon = system: HCT-15 colon
COLO 205 colon = system: COLO 205 colon
M19-MEL melanoma = system: M19-MEL melanoma
HOP-18 NSCLC = system: HOP-18 NSCLC
RPMI-8226 leukemia = system: RPMI-8226 leukemia
SNB-78 CNS = system: SNB-78 CNS
RXF-631 renal = system: RXF-631 renal
SK-MEL-5 melanoma = system: SK-MEL-5 melanoma
HOP-92 NSCLC = system: HOP-92 NSCLC
MALME-3M melanoma = system: MALME-3M melanoma
SK-MEL-2 melanoma = system: SK-MEL-2 melanoma
SW-620 colon = system: SW-620 colon
SK-OV-3 ovarian = system: SK-OV-3 ovarian
EKVX NSCLC = system: EKVX NSCLC
OVCAR-4 ovarian = system: OVCAR-4 ovarian
UO-31 renal = system: UO-31 renal
NCI-H226 lung = system: NCI-H226 lung
ACHN renal = system: ACHN renal
KM20L2 colon = system: KM20L2 colon
MOLT-4 leukemia = system: MOLT-4 leukemia
SF-539 CNS = system: SF-539 CNS
M14 melanoma = system: M14 melanoma
DMS 273 small cell lung = system: DMS 273 small cell lung
SF-295 CNS = system: SF-295 CNS
K-562 leukemia = system: K-562 leukemia
HL-60(TB) leukemia = system: HL-60(TB) leukemia
NCI-H460 lung = system: NCI-H460 lung
SNB-75 CNS = system: SNB-75 CNS
IGROV1 ovarian = system: IGROV1 ovarian
U251 CNS = system: U251 CNS
UACC-257 melanoma = system: UACC-257 melanoma
CAKI-1 renal = system: CAKI-1 renal
HT29 colon = system: HT29 colon
HCT-116 colon = system: HCT-116 colon
RXF 393 renal = system: RXF 393 renal
SK-MEL-28 melanoma = system: SK-MEL-28 melanoma
A549 NSCLC = system: A549 NSCLC
DMS 114 small cell lung = system: DMS 114 small cell lung
SF-268 CNS = system: SF-268 CNS
SNB-19 CNS = system: SNB-19 CNS
NCI-H522 lung = system: NCI-H522 lung
UACC-62 melanoma = system: UACC-62 melanoma

Measured: TGI

COC(=O)C1=C(c2cc(OC)c(OC)c(OC)c2)O[C@H](c2ccc3c(c2)OCO3)[C@H]1COC(C)=O
72.6 µM: SR leukemia
29.8 µM: SK-MEL-5 melanoma
26.3 µM: COLO 205 colon
52.1 µM: SK-OV-3 ovarian
69.2 µM: LXFL 529 NSCLC
57.1 µM: NCI-H23 lung
78.4 µM: 786-0 renal
63.5 µM: U251 CNS
96.2 µM: SN12C renal
41 µM: SF-295 CNS
80 µM: UO-31 renal
92.1 µM: ACHN renal
54.4 µM: HOP-92 NSCLC
95.7 µM: HT29 colon
74 µM: MOLT-4 leukemia
40.3 µM: HL-60(TB) leukemia
91.1 µM: SF-539 CNS
48.6 µM: A498 renal
43.3 µM: M14 melanoma
91.8 µM: K-562 leukemia
not listed: HCT-116 colon | RXF 393 renal | SK-MEL-28 melanoma | A549 NSCLC | DMS 114 small cell lung | SF-268 CNS | SNB-19 CNS | NCI-H522 lung | UACC-62 melanoma
> 100 µM: all other assays above

CNC(C)Cc1ccc(O)cc1 (stereo not drawn)
not listed: M19-MEL melanoma
> 100 µM: all other assays above
